Data: US20230398237A1 (priority 2020, published 2023)

Key:
[1] = tested on: serum proteins (fetal bovine serum); test: Serum protein binding test by agarose gel electrophoresis; assay type: in vitro ADME; details: 10% FBS, 37° C., 30 min
Description: Coomassie brilliant blue 250 (CBB) was used to stain FBS. Color pictures of CBB-stained protein were inserted.
All these samples were analyzed using 2% agarose gel electrophoresis. […] The fluorescence images were taken by Carestream In-vivo FX Pro imaging system under 790 nm/830 nm. Non-invasive fluorescence imaging of body with ICG-PEG conjugates and ex vivo images

[2] = before elimination through the liver; cited from earlier work
[3] = Clearance efficiencies in urine and feces; details: within 24 h post intravenous injection
Description: Then, the urine and feces were quantified based on fluorescence and each standard curve of conjugates were built in control urine and control feces.

[4] = tested on: organic anion transporter; test: Probenecid inhibition studies (renal clearance efficiency); assay type: in vivo, BALB/c mice; details: 200 mg/kg probenecid i.p., urine at 30 min p.i.
Description: BALB/c mice were pre-treated by intraperitoneal injection of 200 mg/kg probenecid and control group were treated by PBS. […] The mice were anesthetized under 3% isoflurane for 30 min under steady breath rate of 7-8 times per 15 sec. After 30 min, the urine was collected from bladder and quantified by fluorescence.

Molecule | serum protein binding [1] | time retained in normal renal parenchyma [2] | clearance percentage in feces [3] | effect of probenecid on renal clearance efficiency [4]
CC1(C)C(/C=C/C=C/C=C/C=C2\N(CCCCS(=O)(=O)O)c3ccc4ccccc4c3C2(C)C)=[N+](CCCCS(=O)(=O)[O-])c2ccc3ccccc3c21 [ICG, Indocyanine green] | completely binds protein | < 15 min | 85.3 % ID | –
FITC-inulin | – | – | – | no significant difference
